Source: the supplement of paper PMC5908809

Key:
[1] = test system: normal NK cells expanded with K562-aAPC; experiment: percent inhibition of viability; higher = more inhibition; conditions: 72 h, IL-2 2.5 ng/mL
Method: (§1)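 Drug sensitivity and resistance testing on K562-aAPC-expanded normal NK cells: 5 concentrations (10-fold steps over a 10,000-fold range), 72 h at 37 °C, viability by CellTiter-Glo normalised to DMSO and benzethonium chloride controls; DSS from the fitted curve.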

DERL-7 (IL-2 2.5 ng/mL) [2] = experiment: as above; conditions: 72 h
IMC-1 (IL-2 20 ng/mL) [3] = experiment: as above; conditions: 72 h
KAI3 (IL-2 2.5 ng/mL) [4] = experiment: as above; conditions: 72 h
KHYG-1 (IL-2 2.5 ng/mL) [5] = experiment: as above; conditions: 72 h
NK-92 (IL-2 2.5 ng/mL) [6] = experiment: as above; conditions: 72 h
NK-YS (IL-2 2.5 ng/mL) [7] = experiment: as above; conditions: 72 h
NKL (IL-2 2.5 ng/mL) [8] = experiment: as above; conditions: 72 h
SNK-6 (IL-2 2.5 ng/mL) [9] = experiment: as above; conditions: 72 h
YT (IL-2 2.5 ng/mL) [10] = experiment: as above; conditions: 72 h
[11] = test system: normal primary NK cells, pool 1 (3 donors) (IL-2 2.5 ng/mL); experiment: as above; conditions: 72 h
[12] = test system: normal primary NK cells, pool 1 (3 donors), resting (IL-2 0 ng/mL); experiment: as above; conditions: 72 h
[13] = test system: normal primary NK cells, pool 2 (3 donors) (IL-2 2.5 ng/mL); experiment: as above; conditions: 72 h
[14] = test system: normal primary NK cells, pool 3 (3 donors) (IL-2 2.5 ng/mL); experiment: as above; conditions: 72 h
[15] = test system: normal NK cells expanded with K562-aAPC; experiment: drug sensitivity score (DSS) (DSS units); higher = more sensitive; extreme values may be limits of the assay; conditions: 72 h; IL-2 2.5 ng/mL
Method: as §1

DERL-7 (IL-2 2.5 ng/mL) [16] = experiment: as above; conditions: 72 h
IMC-1 (IL-2 20 ng/mL) [17] = experiment: as above; conditions: 72 h
KAI3 (IL-2 2.5 ng/mL) [18] = experiment: as above; conditions: 72 h
KHYG-1 (IL-2 2.5 ng/mL) [19] = experiment: as above; conditions: 72 h
NK-92 (IL-2 2.5 ng/mL) [20] = experiment: as above; conditions: 72 h
NK-YS (IL-2 2.5 ng/mL) [21] = experiment: as above; conditions: 72 h
NKL (IL-2 2.5 ng/mL) [22] = experiment: as above; conditions: 72 h
SNK-6 (IL-2 2.5 ng/mL) [23] = experiment: as above; conditions: 72 h
YT (IL-2 2.5 ng/mL) [24] = experiment: as above; conditions: 72 h
[25] = test system: normal primary NK cells, pool 1 (3 donors) (IL-2 2.5 ng/mL); experiment: as above; conditions: 72 h
[26] = test system: normal primary NK cells, pool 1 (3 donors), resting (IL-2 0 ng/mL); experiment: as above; conditions: 72 h
[27] = test system: normal primary NK cells, pool 2 (3 donors) (IL-2 2.5 ng/mL); experiment: as above; conditions: 72 h
[28] = test system: normal primary NK cells, pool 3 (3 donors) (IL-2 2.5 ng/mL); experiment: as above; conditions: 72 h

N#CC[C@H](C1CCCC1)n1cc(-c2ncnc3[nH]ccc23)cn1 [Ruxolitinib] (max concentration tested 10000 nM)
percent inhibition of viability [%]
Conditions | 1 nM | 10 nM | 100 nM | 1000 nM | 10000 nM
DERL-7 (IL-2 2.5 ng/mL) [2] | 9.24 | 20.8 | 64.2 | 101 | 101
IMC-1 (IL-2 20 ng/mL) [3] | 1.77 | -5.31 | 5.62 | 58.7 | 99.6
KAI3 (IL-2 2.5 ng/mL) [4] | 18.2 | 33.2 | 84.8 | 97.7 | 101
KHYG-1 (IL-2 2.5 ng/mL) [5] | 7.19 | 19.2 | 94.1 | 108 | 108
NK-92 (IL-2 2.5 ng/mL) [6] | 14.7 | 23.2 | 54.9 | 93.3 | 105
NK-YS (IL-2 2.5 ng/mL) [7] | 3.29 | 10.2 | 48.2 | 68.6 | 84.1
NKL (IL-2 2.5 ng/mL) [8] | -1.94 | 49.5 | 75.1 | 94.7 | 101
SNK-6 (IL-2 2.5 ng/mL) [9] | 7.33 | 12.7 | 73.5 | 73.9 | 85.4
YT (IL-2 2.5 ng/mL) [10] | 9.67 | 13.1 | 30.9 | 75.8 | 84.3
[1] | 2.08 | 18.6 | 65.1 | 97.8 | 98.6
[11] | 2.57 | 6.3 | 49.3 | 58 | 74.3
[12] | 7.5 | -6.83 | 11.8 | -24.4 | 27.4
[13] | -1.35 | 14.5 | 50.1 | 65 | 71.7
[14] | 3.79 | 6.55 | 43 | 64.5 | 74.2

Conditions | drug sensitivity score
DERL-7 (IL-2 2.5 ng/mL) [16] | 27.1
IMC-1 (IL-2 20 ng/mL) [17] | 12.6
KAI3 (IL-2 2.5 ng/mL) [18] | 32.2
KHYG-1 (IL-2 2.5 ng/mL) [19] | 32.2
NK-92 (IL-2 2.5 ng/mL) [20] | 25.6
NK-YS (IL-2 2.5 ng/mL) [21] | 19.8
NKL (IL-2 2.5 ng/mL) [22] | 32.6
SNK-6 (IL-2 2.5 ng/mL) [23] | 25.9
YT (IL-2 2.5 ng/mL) [24] | 17.8
[15] | 26.7
[25] | 18.5
[26] | 0.6
[27] | 19.8
[28] | 18

COc1ccc(CCc2nc3cc(-c4c(C)noc4C)ccc3n2C[C@H](C)N2CCOCC2)cc1Cl [SGC-CBP30] (max concentration tested 25000 nM)
percent inhibition of viability [%]
Conditions | 2.5 nM | 25 nM | 250 nM | 2500 nM | 25000 nM
DERL-7 (IL-2 2.5 ng/mL) [2] | 0.1 | 3.95 | 12.3 | 60.5 | 96.1
IMC-1 (IL-2 20 ng/mL) [3] | -7.53 | -9.31 | -8.36 | -20.2 | 35.3
KAI3 (IL-2 2.5 ng/mL) [4] | 1.53 | -3.88 | -18.5 | -12.8 | 51.8
KHYG-1 (IL-2 2.5 ng/mL) [5] | -1.44 | -8.58 | -1.59 | 16.4 | 99.4
NK-92 (IL-2 2.5 ng/mL) [6] | -16.2 | -20.5 | -26.2 | -17.7 | 64.4
NK-YS (IL-2 2.5 ng/mL) [7] | -1.97 | -5.16 | 0.38 | 22.5 | 67.9
NKL (IL-2 2.5 ng/mL) [8] | 0.5 | 1.11 | 1.38 | 53.1 | 72.8
SNK-6 (IL-2 2.5 ng/mL) [9] | -3.48 | -9.35 | 6.99 | 15.5 | 20.9
YT (IL-2 2.5 ng/mL) [10] | -1.31 | -7.71 | -7.11 | 10.1 | 70
[1] | -5.48 | -4.45 | -3.35 | 8.12 | 84.2
[11] | -4.81 | 2.68 | 13 | 33.8 | 96.6
[12] | 18.2 | 2.19 | 20.6 | 19.9 | 86
[13] | -5.14 | -1.93 | 8.85 | 24.7 | 90.1
[14] | -5.75 | -3.57 | 2.2 | 8.83 | 68.9

Conditions | drug sensitivity score
DERL-7 (IL-2 2.5 ng/mL) [16] | 13.3
IMC-1 (IL-2 20 ng/mL) [17] | 1.04
KAI3 (IL-2 2.5 ng/mL) [18] | 2.09
KHYG-1 (IL-2 2.5 ng/mL) [19] | 8.22
NK-92 (IL-2 2.5 ng/mL) [20] | 2.67
NK-YS (IL-2 2.5 ng/mL) [21] | 6.98
NKL (IL-2 2.5 ng/mL) [22] | 10.4
SNK-6 (IL-2 2.5 ng/mL) [23] | 2.41
YT (IL-2 2.5 ng/mL) [24] | 5.56
[15] | 5.98
[25] | 9.22
[26] | 7.45
[27] | 8.45
[28] | 5.27
